Source: ChEMBL document CHEMBL2150930, “Design, synthesis and pharmacological evaluation of novel tacrine-caffeic acid hybrids as multi-targeted compounds against Alzheimer's disease” (Bioorg Med Chem Lett, 2012)
pIC50: −log10 of the molar value. Active and inactive are the calls of the source. No cut-off for these calls is given here.

Assays:
Acetylcholinesterase = Acetylcholinesterase (Electrophorus electricus, UniProt O42275); test: Inhibition of electric eel AChE using […] as substrate preincubated for 20 mins by Ellman's method
[1] = system: Radical scavenging activity
Description: Antioxidant activity of the compound assessed as DPPH radical scavenging activity after 60 mins

Cholinesterase = Cholinesterase (Equus caballus, UniProt P81908)
Description: Inhibition of horse serum BuChE using butyrylthiocholine iodide as substrate preincubated for 20 mins by Ellman's method

HT-22 [2] = test: Neuroprotective activity in mouse HT22 cells assessed as protection against H2O2-induced cell death at 3 to 30 uM preincubated for 30 mins prior to H2O2 challenge measured after 24 hrs by MTT assay; format: functional, cell-based
HT-22 [3] = test: Cytotoxicity against mouse HT22 cells at 100 uM after 30 mins by LDH release assay; format: cell-based; conditions: ht-22, 0.5 h
HT-22 [4] = test: Cytotoxicity against mouse HT22 cells assessed as cell viability at 30 uM after 24 hrs by MTT assay; format: cell-based; conditions: ht-22, 24 h
HT-22 [5] = test: […] against mouse HT22 cells at 100 uM after 30 mins by LDH release assay; format: cell-based; conditions: ht-22, 0.5 h
[6] = Antioxidant activity against Cu2+-mediated ROS formation in HEPES buffer at pH 7.4 assessed as compound-Cu2+ complex formation at 40 uM after 5 mins by UV-vis spectrophotometric analysis; format: functional
[7] = molecular target: Acetylcholinesterase (Electrophorus electricus) (UniProt O42275); test: Mixed type inhibition of electric eel AChE using […] as substrate by Lineweaver-Burk plot analysis
Acetylcholinesterase (Electrophorus electricus), sequence (O42275 24-633 limits assumed): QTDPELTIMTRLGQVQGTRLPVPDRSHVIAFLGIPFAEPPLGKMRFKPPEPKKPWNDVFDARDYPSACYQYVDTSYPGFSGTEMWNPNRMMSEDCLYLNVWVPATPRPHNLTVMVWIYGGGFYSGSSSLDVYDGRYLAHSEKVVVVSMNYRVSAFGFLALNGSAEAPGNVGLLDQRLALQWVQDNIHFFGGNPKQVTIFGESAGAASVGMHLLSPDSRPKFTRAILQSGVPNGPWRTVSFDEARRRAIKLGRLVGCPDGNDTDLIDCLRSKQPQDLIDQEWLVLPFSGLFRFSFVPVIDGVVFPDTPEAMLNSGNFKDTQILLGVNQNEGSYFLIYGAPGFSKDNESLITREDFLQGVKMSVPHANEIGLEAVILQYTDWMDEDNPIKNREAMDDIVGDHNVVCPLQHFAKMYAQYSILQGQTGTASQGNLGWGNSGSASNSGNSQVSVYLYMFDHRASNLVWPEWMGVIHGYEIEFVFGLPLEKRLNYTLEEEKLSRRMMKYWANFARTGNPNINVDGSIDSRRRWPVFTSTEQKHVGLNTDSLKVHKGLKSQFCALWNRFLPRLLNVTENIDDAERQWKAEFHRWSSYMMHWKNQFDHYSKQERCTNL

Cholinesterase, sequence (P81908 whole entry): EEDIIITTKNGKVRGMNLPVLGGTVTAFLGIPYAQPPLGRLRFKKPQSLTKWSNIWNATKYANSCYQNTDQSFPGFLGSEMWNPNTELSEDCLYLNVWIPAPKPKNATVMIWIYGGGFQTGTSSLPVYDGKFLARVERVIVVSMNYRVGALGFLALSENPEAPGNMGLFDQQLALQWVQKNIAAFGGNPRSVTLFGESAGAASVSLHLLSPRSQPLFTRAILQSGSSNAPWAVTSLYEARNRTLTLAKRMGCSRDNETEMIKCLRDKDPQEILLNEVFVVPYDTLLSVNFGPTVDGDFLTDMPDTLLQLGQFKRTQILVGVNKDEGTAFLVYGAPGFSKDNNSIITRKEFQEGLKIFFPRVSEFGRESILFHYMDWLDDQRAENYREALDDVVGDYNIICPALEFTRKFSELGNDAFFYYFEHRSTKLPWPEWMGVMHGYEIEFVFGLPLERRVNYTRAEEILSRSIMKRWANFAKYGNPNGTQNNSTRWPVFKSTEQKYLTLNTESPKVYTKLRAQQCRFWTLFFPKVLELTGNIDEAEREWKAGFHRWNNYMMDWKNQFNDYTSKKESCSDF
Acetylcholinesterase, sequence (O42275 whole entry): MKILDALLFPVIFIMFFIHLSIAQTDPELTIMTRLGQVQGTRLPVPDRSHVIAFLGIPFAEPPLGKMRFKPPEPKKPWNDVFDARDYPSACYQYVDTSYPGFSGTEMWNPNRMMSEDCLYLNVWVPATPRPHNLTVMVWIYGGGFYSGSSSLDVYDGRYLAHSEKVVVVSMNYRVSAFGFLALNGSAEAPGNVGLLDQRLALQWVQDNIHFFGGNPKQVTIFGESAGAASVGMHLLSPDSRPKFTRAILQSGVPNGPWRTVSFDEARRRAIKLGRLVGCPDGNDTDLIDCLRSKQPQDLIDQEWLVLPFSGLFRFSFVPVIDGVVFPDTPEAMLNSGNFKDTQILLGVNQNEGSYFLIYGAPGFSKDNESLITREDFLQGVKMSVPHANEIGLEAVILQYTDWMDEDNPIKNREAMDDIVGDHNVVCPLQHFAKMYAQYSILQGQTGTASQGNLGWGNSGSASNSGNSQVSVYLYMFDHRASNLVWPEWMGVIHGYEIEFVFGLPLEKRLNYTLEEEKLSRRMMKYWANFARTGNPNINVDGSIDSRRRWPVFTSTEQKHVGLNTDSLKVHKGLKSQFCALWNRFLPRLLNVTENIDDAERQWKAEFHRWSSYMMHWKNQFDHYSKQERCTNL

SMILES | pIC50 (Acetylcholinesterase) | pIC50 [1] | pIC50 (Cholinesterase) | Activity (HT-22 [2]) | Activity (HT-22 [3]) | Activity (HT-22 [4]) | Activity (HT-22 [5]) | Activity [6] | inhibition [7]
O=C(/C=C/c1ccc(O)c(O)c1)NCCCCCCNc1c2c(nc3ccccc13)CCCC2 | 5.72 | 4.98 | 5.41 |  |  |  |  |  | 
O=C(/C=C/c1ccc(O)c(O)c1)NCCNc1c2c(nc3cc(Cl)ccc13)CCCC2 | 6.00 | 5.01 | 5.26 | Active |  |  |  |  | 
O=C(/C=C/c1ccc(O)c(O)c1)NCCCCCCNc1c2c(nc3cc(Cl)ccc13)CCCC2 | 5.20 | 5.33 | 5.42 | Active | Non-toxic | Toxic |  |  | 
O=C(/C=C/c1ccc(O)c(O)c1)NCCNc1c2c(nc3ccccc13)CCCC2 | 5.74 | 4.85 | 5.64 |  |  |  |  |  | 
O=C(/C=C/c1ccc(O)c(O)c1)NCCCNc1c2c(nc3ccccc13)CCCC2 | 8.06 | 4.95 | 7.08 |  |  |  |  |  | 
O=C(/C=C/c1ccc(O)c(O)c1)NCCCNc1c2c(nc3cc(Cl)ccc13)CCCC2 | 6.52 | 5.32 | 4.53 | Active | Non-toxic | Toxic | Toxic | Active | Active
